Reference: the NIST ThermoML archive (doi:10.1021/je7003758)
Numbers after ± are expanded uncertainties.

Settings: Liquid

CN1CCCC1=O [N-methylpyrrolidone]
mass density [kg/m3]
Settings | 288.15 K | 298.15 K | 308.15 K | 318.15 K
100 kPa | 1036.8 ± 0.3 | 1028 ± 0.3 | 1019.3 ± 0.3 | 1011 ± 0.3
500 kPa | 1036.9 ± 0.3 | 1028.1 ± 0.3 | 1019.5 ± 0.3 | 1011.1 ± 0.3
1000 kPa | 1037.2 ± 0.3 | 1028.4 ± 0.3 | 1019.8 ± 0.3 | 1011.4 ± 0.3
1500 kPa | 1037.4 ± 0.3 | 1028.7 ± 0.3 | 1020 ± 0.3 | 1011.7 ± 0.3
2000 kPa | 1037.7 ± 0.3 | 1028.9 ± 0.3 | 1020.3 ± 0.3 | 1012.1 ± 0.3
2500 kPa | 1037.9 ± 0.3 | 1029.2 ± 0.3 | 1020.6 ± 0.3 | 1012.4 ± 0.3
3000 kPa | 1038.2 ± 0.3 | 1029.4 ± 0.3 | 1020.9 ± 0.3 | 1012.7 ± 0.3
3500 kPa | 1038.4 ± 0.3 | 1029.7 ± 0.3 | 1021.1 ± 0.3 | 1012.9 ± 0.3
4000 kPa | 1038.7 ± 0.3 | 1030 ± 0.3 | 1021.4 ± 0.3 | 1013.2 ± 0.3
4500 kPa | 1038.9 ± 0.3 | 1030.2 ± 0.3 | 1021.6 ± 0.3 | 1013.5 ± 0.3
5000 kPa | 1039.2 ± 0.3 | 1030.5 ± 0.3 | 1021.8 ± 0.3 | 1013.8 ± 0.3
5500 kPa | 1039.4 ± 0.3 | 1030.7 ± 0.3 | 1022.2 ± 0.3 | 1014 ± 0.3
5900 kPa | – | 1031 ± 0.3 | – | –
6000 kPa | 1039.6 ± 0.3 | – | 1022.4 ± 0.3 | 1014.4 ± 0.3
6400 kPa | – | – | 1022.6 ± 0.3 | –
6500 kPa | 1039.9 ± 0.3 | 1031.3 ± 0.3 | – | 1014.6 ± 0.3
6900 kPa | – | 1031.5 ± 0.3 | – | –
7000 kPa | 1040.2 ± 0.3 | – | – | 1014.9 ± 0.3
7100 kPa | – | – | 1023 ± 0.3 | –
7500 kPa | 1040.4 ± 0.3 | 1031.8 ± 0.3 | 1023.1 ± 0.3 | 1015.2 ± 0.3
8000 kPa | 1040.7 ± 0.3 | 1032 ± 0.3 | – | 1015.5 ± 0.3
8100 kPa | – | – | 1023.5 ± 0.3 | –
8500 kPa | 1041 ± 0.3 | 1032.3 ± 0.3 | 1023.7 ± 0.3 | 1015.8 ± 0.3
9000 kPa | 1041.2 ± 0.3 | 1032.5 ± 0.3 | 1024 ± 0.3 | 1016 ± 0.3
9500 kPa | 1041.4 ± 0.3 | – | 1024.3 ± 0.3 | 1016.3 ± 0.3
9600 kPa | – | 1032.9 ± 0.3 | – | –
10000 kPa | 1041.7 ± 0.3 | 1033.1 ± 0.3 | 1024.6 ± 0.3 | 1016.6 ± 0.3
10400 kPa | – | – | 1024.8 ± 0.3 | –
10500 kPa | 1042 ± 0.4 | 1033.3 ± 0.3 | – | 1016.9 ± 0.3
11000 kPa | 1042.2 ± 0.4 | 1033.6 ± 0.3 | – | 1017.3 ± 0.3
11100 kPa | – | – | 1025.1 ± 0.3 | –
11400 kPa | – | – | – | 1017.6 ± 0.3
11500 kPa | 1042.5 ± 0.4 | 1033.8 ± 0.3 | 1025.3 ± 0.3 | –
12000 kPa | – | 1034.1 ± 0.3 | 1025.5 ± 0.3 | 1017.8 ± 0.3
12100 kPa | 1042.7 ± 0.4 | – | – | –
12500 kPa | 1042.9 ± 0.4 | 1034.3 ± 0.3 | 1025.8 ± 0.3 | 1018 ± 0.3
12900 kPa | – | – | – | 1018.3 ± 0.3
13000 kPa | 1043.1 ± 0.4 | 1034.6 ± 0.3 | 1026 ± 0.3 | –
13500 kPa | 1043.4 ± 0.4 | 1034.8 ± 0.3 | 1026.3 ± 0.3 | 1018.5 ± 0.3
14000 kPa | 1043.6 ± 0.4 | 1035.1 ± 0.3 | 1026.5 ± 0.3 | 1018.8 ± 0.3
14400 kPa | – | 1035.3 ± 0.4 | – | –
14500 kPa | 1043.8 ± 0.4 | – | 1026.8 ± 0.3 | 1019.1 ± 0.3
14900 kPa | – | 1035.5 ± 0.4 | – | –
15000 kPa | 1044.1 ± 0.4 | – | 1027 ± 0.3 | 1019.4 ± 0.3
15500 kPa | 1044.3 ± 0.4 | 1035.8 ± 0.4 | 1027.3 ± 0.3 | 1019.7 ± 0.3
16000 kPa | 1044.5 ± 0.4 | 1036 ± 0.4 | 1027.5 ± 0.3 | 1019.9 ± 0.3
16500 kPa | 1044.8 ± 0.4 | 1036.3 ± 0.4 | 1027.7 ± 0.3 | 1020.2 ± 0.3
17000 kPa | 1045 ± 0.4 | 1036.5 ± 0.4 | 1028 ± 0.3 | 1020.4 ± 0.3
17500 kPa | 1045.2 ± 0.4 | 1036.7 ± 0.4 | 1028.3 ± 0.3 | 1020.7 ± 0.3
17900 kPa | – | 1037 ± 0.4 | – | –
18000 kPa | 1045.4 ± 0.4 | – | 1028.5 ± 0.3 | 1021 ± 0.3
18500 kPa | – | 1037.2 ± 0.4 | 1028.7 ± 0.3 | 1021.3 ± 0.3
18600 kPa | 1045.7 ± 0.4 | – | – | –
19000 kPa | 1046 ± 0.4 | 1037.4 ± 0.4 | 1029 ± 0.3 | 1021.5 ± 0.3
19500 kPa | 1046.2 ± 0.4 | 1037.7 ± 0.4 | 1029.2 ± 0.4 | –
19600 kPa | – | – | – | 1021.9 ± 0.3
20000 kPa | 1046.4 ± 0.4 | 1037.9 ± 0.4 | 1029.4 ± 0.4 | 1022 ± 0.3
